The compounds below were run against T1, Endothelial lipase (EL) (Homo sapiens, UniProt Q9Y5X9) (assay: Endothelial lipase (EL) enzymatic assay with fluorescent substrate A10070 in DMPG vesicles). Conditions: conditioned media from HT-1080 cells overexpressing endogenous EL; 20 min preincubation at 37° C.
T1 construct: transformed by RAGE technology (Athersys) to overexpress endogenous EL; endogenous in cells; the conditioned medium served as the enzyme source
T1 sequence (Q9Y5X9 21-500): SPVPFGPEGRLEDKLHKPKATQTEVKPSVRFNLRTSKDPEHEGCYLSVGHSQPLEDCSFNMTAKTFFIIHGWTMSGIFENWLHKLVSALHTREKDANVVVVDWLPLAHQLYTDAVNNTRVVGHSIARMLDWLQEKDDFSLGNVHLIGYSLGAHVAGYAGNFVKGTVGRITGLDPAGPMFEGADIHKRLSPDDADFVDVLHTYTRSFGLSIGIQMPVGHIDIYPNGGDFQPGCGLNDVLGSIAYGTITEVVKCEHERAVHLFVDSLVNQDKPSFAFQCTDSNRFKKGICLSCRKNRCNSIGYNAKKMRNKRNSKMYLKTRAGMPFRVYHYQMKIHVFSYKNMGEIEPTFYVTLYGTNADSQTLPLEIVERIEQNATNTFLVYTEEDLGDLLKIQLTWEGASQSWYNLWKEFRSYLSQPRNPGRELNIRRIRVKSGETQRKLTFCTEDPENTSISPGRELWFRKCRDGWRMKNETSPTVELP
Assay type: biochemical
Procedure: Endothelial lipase activity was measured using a fluorescent substrate, A10070, (Invitrogen, CA) doped into an artificial vesicle containing DMPG (Avanti Polar Lipids) as the excipient. Vesicles were prepared by combining 285 μL of 1 mM DMPG in a 1:1 mixture of MeOH and CHCl3 with 15 μL of 1 mM A10070 in a 1:1 mixture of MeOH and CHCl3. The mixture was dried under nitrogen and resuspended in 150 μL of 50 mM HEPES pH 8.0 buffer containing 100 mM NaCl and 0.2 mM EDTA. The sample was allowed to sit at rt for 15 min and then was sonicated 3×4 mins on ice with a Branson Sonicator using duty cycle 1. This preparation provides vesicles with a mole fraction of 0.05 for the FRET substrate.
The enzymatic assay was measured using white, opaque 96-well half area plates. Each well contained 60 μL of assay buffer (50 mM HEPES pH 8.0, 50 mM NaCl and 1 mM CaCl2) and 2 ul of a DMSO solution containing compound of interest. Conditioned media obtained from HT-1080 cells, which were transformed by RAGE technology (Athersys) to overexpress endogenous EL, was added and the reaction was allowed to incubate for 20 min at 37° C. with gentle agitation. The reaction was started by the addition of 20 μL of a 1:4 dilution of vesicles. The final total reaction volume was 100 μL. The reaction rates were measured on a Gemini plate reader with an excitation wavelength of 488 nm and an emission of 530 nm. Readings were taken every 20 seconds for 10 min with agitation between each reading. The slope of the linear portion of the readout was used to calculate the rate of the reaction.

Row | IC50 [nM] | Structure (SMILES)
1 | 13 | N#CC(C(=O)NCC(=O)NC1CC1)c1nc2ccc(-c3ccccc3)cc2s1 (stereo not drawn) [Example 1, 2-cyano-N-(2-(cyclopropylamino)-2-oxoethyl)-2-(6-phenylbenzo[d]thiazol-2-yl)acetamide]
2 | 398 | CN(C)C(=O)c1cccc(-c2ccc3nc(C(C#N)C(=O)NCC(=O)NC4CC4)sc3c2)c1 (stereo not drawn) [Example 2, 3-{2-[cyano ({[(cyclopropyl-carbamoyl)methyl]carbamoyl})methyl]-1,3-benzothiazol-6-yl}-N,N-dimethyl-benzamide]
3 | 238 | CN(C)C(=O)c1ccc(-c2ccc3nc(C(C#N)C(=O)NCC(=O)NC4CC4)sc3c2)cc1F (stereo not drawn) [Example 3, 4-{2-[cyano ({[(cyclopropyl-carbamoyl)methyl]carbamoyl})methyl]-1,3-benzothiazol-6-yl}-2-fluoro-N,N-dimethyl-benzamide]
4 | > 10000 | Cn1ccc(-c2ccc3nc(C(C#N)C(=O)NCC(=O)NC4CC4)sc3c2)cc1=O (stereo not drawn) [Example 4, 2-cyano-N-[(cyclopropyl-carbamoyl)methyl]-2-[6-(1-methyl-2-oxo-1,2-dihydropyridin-4-yl)-1,3-benzothiazol-2-yl] acetamide]
5 | 16 | N#CC(C(=O)NCC(=O)NC1CC1)c1nc2ccc(-c3cccc(C(=O)N4CCCCC4)c3)cc2s1 (stereo not drawn) [Example 5, 2-cyano-N-[(cyclopropyl-carbamoyl)methyl]-2-{6-[3-(piperidine-1-carbonyl)phenyl]-1,3-benzothiazol-2-yl}acetamide]
6 | 399 | N#CC(C(=O)NCC(=O)NC1CC1)c1nc2ccc(-c3cccc(C(N)=O)c3)cc2s1 (stereo not drawn) [Example 9, 3-{2-[cyano ({[(cyclopropyl-carbamoyl)methyl]carbamoyl})methyl]-1,3-benzothiazol-6-yl} benzamide]
7 | 18 | N#CC(C(=O)NCC(=O)NC1CC1)c1nc2ccc(-c3cccc(C(=O)N4CCOCC4)c3)cc2s1 (stereo not drawn) [Example 10, 2-cyano-N-[(cyclopropyl-carbamoyl)methyl]-2-{6-[3-(morpholine-4-carbonyl)phenyl]-1,3-benzothiazol-2-yl]acetamide]
8 | 26 | N#CC(C(=O)NCC(=O)NC1CC1)c1nc2ccc(-c3ccc(C(N)=O)cc3)cc2s1 (stereo not drawn) [Example 11, 4-{2-[cyano ({[(cyclopropyl-carbamoyl)methyl]carbamoyl})methyl]-1,3-benzothiazol-6-yl} benzamide]
9 | 172 | N#CC(C(=O)NCC(=O)NC1CC1)c1nc2ccc(-c3ccc(F)nc3)cc2s1 (stereo not drawn) [Example 16, 2-cyano-N-[(cyclopropyl-carbamoyl)methyl]-2-[6-(6-fluoropyridin-3-yl)-1,3-benzothiazol-2-yl] acetamide]
10 | 31 | N#CC(C(=O)NCC(=O)NC1CC1)c1nc2ncc(-c3ccc(C(N)=O)cc3)cc2s1 (stereo not drawn) [Example 24, 4-{2-[cyano({[(cyclopropyl-carbamoyl)methyl]carbamoyl})methyl]-[1,3]thiazolo[4,5-b]pyridin-6-yl}benzamide]
11 | 21 | N#CC(C(=O)NCC(=O)NC1CC1)c1nc2cc(-c3cccc(C(N)=O)c3)c(F)cc2s1 (stereo not drawn) [Example 26, 3-{2-[cyano({[(cyclopropylcarbamoyl)methyl]carbamoyl})methyl]-6-fluoro-1,3-benzothiazol-5-yl}benzamide]
12 | 13 | N#CC(C(=O)NCC(=O)NC1CC1)c1nc2cc(-c3ccccc3)c(F)cc2s1 (stereo not drawn) [Example 27, 2-cyano-N-[(cyclopropyl-carbamoyl)methyl]-2-(6-fluoro-5-phenyl-1,3-benzothiazol-2-yl)acetamide]

Continued, compound first:

Row | Structure (SMILES) | IC50 [nM]
13 | N#CC(C(=O)NCC(=O)NC1CC1)c1nc2ccc(-c3ccc4c(c3)C(=O)NC4)cc2s1 (stereo not drawn) [Example 6, 2-cyano-N-[(cyclopropyl-carbamoyl)methyl]-2-[6-(3-oxo-2,3-dihydro-1H-isoindol-5-yl)-1,3-benzothiazol-2-yl] acetamide] | 259
14 | N#CC(C(=O)NCC(=O)NC1CC1)c1nc2ccc(-c3ccc(C(=O)N4CCC4)cc3)cc2s1 (stereo not drawn) [Example 7, 2-{6-[4-(azetidine-1-carbonyl)phenyl]-1,3-benzothiazol-2-yl}-2-cyano-N-[(cyclopropyl-carbamoyl)methyl] acetamide] | 15
15 | N#CC(C(=O)NCC(=O)NC1CC1)c1nc2ccc(-c3ccc4c(c3)CNC4=O)cc2s1 (stereo not drawn) [Example 8, 2-cyano-N-[(cyclopropyl-carbamoyl)methyl]-2-[6-(1-oxo-2,3-dihydro-1H-isoindol-5-yl)-1,3-benzothiazol-2-yl]acetamide] | 5
16 | COCCNC(=O)c1ccc(-c2ccc3nc(C(C#N)C(=O)NCC(=O)NC4CC4)sc3c2)cc1 (stereo not drawn) [Example 12, 4-{2-[cyano ({[(cyclopropyl-carbamoyl)methyl]carbamoyl})methyl]-1,3-benzothiazol-6-yl}-N-(2-methoxyethyl) benzamide] | 16
17 | N#CC(C(=O)NCC(=O)NC1CC1)c1nc2ccc(-c3ccc(C(=O)N4CCCCC4)cc3)cc2s1 (stereo not drawn) [Example 13, 2-cyano-N-[(cyclopropyl-carbamoyl)methyl]-2-{6-[4-(piperidine-1-carbonyl)phenyl]-1,3-benzothiazol-2-yl} acetamide] | 11
18 | N#CC(C(=O)NCC(=O)NC1CC1)c1nc2ccc(-c3ccc(C(=O)N4CCOCC4)cc3)cc2s1 (stereo not drawn) [Example 14, 2-cyano-N-(2-(cyclopropylamino)-2-oxoethyl)-2-(6-(4-(morpholine-4-carbonyl)phenyl)benzo[d]thiazol-2-yl)acetamide] | 62
19 | N#CC(C(=O)NCC(=O)NC1CC1)c1nc2ccc(-c3ccc(NC(=O)OCc4ccccc4)cc3)cc2s1 (stereo not drawn) [Example 15, benzyl N-(4-{2-[cyano ({[(cyclopropyl-carbamoyl)methyl]carbamoyl})methyl]-1,3-benzothiazol-6-yl}phenyl) carbamate] | 1.4
20 | N#CC(C(=O)NCC(=O)NC1COC1)c1nc2ccc(-c3ccc(F)nc3)cc2s1 (stereo not drawn) [Example 17, 2-cyano-2-[6-(6-fluoropyridin-3-yl)-1,3-benzothiazol-2-yl]-N-{[(oxetan-3-yl)carbamoyl]methyl} acetamide] | 67
21 | N#CC(C(=O)NCC(=O)N1CCCC1)c1nc2ccc(-c3ccccc3)cc2s1 (stereo not drawn) [Example 18, 2-cyano-N-[2-oxo-2-(pyrrolidin-1-yl)ethyl]-2-(6-pheny1-1,3-benzothiazol-2-yl)acetamide] | 1320
22 | CN1CCN(C(=O)c2ccc(-c3ccc4nc(C(C#N)C(=O)NCC(=O)NC5CCC5)sc4c3)cc2)CC1 (stereo not drawn) [Example 19, 2-cyano-N-[(cyclobutyl-carbamoyl)methyl]-2-{6-[4-(4-methyl-piperazine-1-carbonyl)phenyl]-1,3-benzothiazol-2-yl} acetamide] | 3140
23 | CN1CCN(C(=O)c2ccc(-c3ccc4nc(C(C#N)C(=O)NCC(=O)NC5CC5)sc4c3)cc2)CC1 (stereo not drawn) [Example 20, 2-cyano-N-[(cyclopropyl-carbamoyl)methyl]-2-{6-[4-(4-methyl-piperazine-1-carbonyl)phenyl]-1,3-benzothiazol-2-yl} acetamide] | 130
24 | N#CC(C(=O)NCC(=O)NC1CC1)c1nc2ncc(-c3ccccc3)cc2s1 (stereo not drawn) [Example 21, 2-cyano-N-(2-(cyclopropylamino)-2-oxoethyl)-2-(6-phenylthiazolo[4,5-b]pyridin-2-yl)acetamide] | 13
25 | N#CC(C(=O)NCC(=O)NC1CC1)c1nc2ncc(-c3cccc(C(=O)N4CCOCC4)c3)cc2s1 (stereo not drawn) [Example 22, 2-cyano-N-[(cyclopropyl-carbamoyl)methyl]-2-{6-[3-(morpholine-4-carbonyl)phenyl]-[1,3]thiazolo[4,5-b]pyridin-2-yl}acetamide] | 22
26 | CN1CCN(C(=O)c2ccc(-c3cnc4nc(C(C#N)C(=O)NCC(=O)NC5CC5)sc4c3)cc2)CC1 (stereo not drawn) [Example 23, 2-cyano-N-[(cyclopropyl-carbamoyl)methyl]-2-{6-[4-(4-methylpiperazine-1-carbonyl)phenyl]-[1,3]thiazolo[4,5-6]pyridin-2-yl}acetamide] | 33
27 | COCCNC(=O)c1ccc(-c2cnc3nc(C(C#N)C(=O)NCC(=O)NC4CC4)sc3c2)cc1 (stereo not drawn) [Example 25, 4-{2-[cyano({[(cyclopropyl-carbamoyl)methyl]carbamoyl})methyl]-[1,3]thiazolo[4,5-b]pyridin-6-yl}-N-(2-methoxyethyl) benzamide] | 40
